Experimental data from US6737383B1, “Herbicidal oxadiazolidines” (priority 1999, dated 2004).

Tests used:
morningglory = experiment: Test B pre/postemergence morningglory; format: in vivo, Ipomoea hederacea
Procedure, shortened: (§1)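 Response is a visual 0-to-10 score relative to untreated plants, where 0 means no effect and 10 means complete control, taken twelve to sixteen days after application. Treatments went onto soil at planting and onto foliage of 1- to 4-leaf plants, using a surfactant-containing non-phytotoxic solvent.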

wheat = experiment: Test B pre/postemergence wheat; format: in vivo, Triticum aestivum; conditions: for Plant response rating, Wheat: Rate 250 g/ha
Procedure, shortened: as §1

rape = experiment: Test B pre/postemergence rape; format: in vivo, Brassica napus
Procedure, shortened: as §1

cocklebur = experiment: Test B pre/postemergence cocklebur; format: in vivo, Xanthium strumarium
Procedure, shortened: as §1

bedstraw = experiment: Test B pre/postemergence bedstraw; format: in vivo, Galium aparine
Procedure, shortened: as §1

velvetleaf = experiment: Test B pre/postemergence velvetleaf; format: in vivo, Abutilon theophrasti; conditions: for Plant response rating, Velvetleaf: Rate 250 g/ha
Procedure, shortened: as §1

crabgrass = experiment: Test B pre/postemergence crabgrass; format: in vivo, Digitaria sanguinalis
Procedure, shortened: as §1

duck salad = experiment: Test B flood test duck salad; format: in vivo, Heteranthera limosa
Procedure, shortened: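 Plants were grown to the 2-leaf stage before treatment with test chemical, then held in a greenhouse for twelve to sixteen days. Injury was visually rated against untreated controls on a 0–10 scale, where 0 is no effect and 10 is complete control.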

sugar beet = experiment: Test B pre/postemergence sugar beet; format: in vivo, Beta vulgaris; conditions: for Plant response rating, Sugarbeets: Rate 250 g/ha
Procedure, shortened: as §1

purple nutsedge = experiment: Test B pre/postemergence purple nutsedge; format: in vivo, Cyperus rotundus
Procedure, shortened: as §1

surinam grass = experiment: Test B pre/postemergence surinam grass; format: in vivo, Brachiaria decumbens
Procedure, shortened: as §1

pigweed = experiment: Test B pre/postemergence pigweed; format: in vivo, Amaranthus retroflexus
Procedure, shortened: as §1

giant foxtail = experiment: Test B pre/postemergence giant foxtail; format: in vivo, Setaria faberii
Procedure, shortened: as §1

soybean = experiment: Test B pre/postemergence soybean; format: in vivo, Glycine max
Procedure, shortened: as §1

corn = experiment: Test B pre/postemergence corn; format: in vivo, Zea mays
Procedure, shortened: as §1

[1] = Postemergence, Rate 125 g/ha, scale of 0 to 10 where 0 is no effect and 10 is complete control
[2] = Postemergence, Rate 250 g/ha, scale 0 to 10, 0 no effect, 10 complete control
[3] = Preemergence, Rate 62 g/ha, scale 0 to 10 (0 no effect, 10 complete control)
[4] = Preemergence, Rate 125 g/ha, scale 0 to 10 (0 no effect, 10 complete control)
[5] = Preemergence, Rate 250 g/ha, scale of 0 to 10 where 0 is no effect and 10 is complete control
[6] = Preemergence, Rate 500 g/ha, scale 0 to 10 (0 no effect, 10 complete control)
[7] = Rate 62 g/ha, Postemergence, scale of 0 to 10 where 0 is no effect and 10 is complete control
[8] = Rate 500 g/ha, Postemergence, scale 0 to 10, 0 no effect, 10 complete control
[9] = Preemergence, Rate 125 g/ha, 0 is no effect, 10 is complete control
[10] = Preemergence, scale of 0 to 10 where 0 is no effect and 10 is complete control
[11] = Postemergence, scale 0 to 10, 0 is no effect, 10 is complete control
[12] = Postemergence, Rate 62 g/ha, scale 0 to 10, 0 is no effect, 10 is complete control
[13] = Rate 125 g/ha, Postemergence, scale 0 to 10, 0 no effect, 10 complete control
[14] = Rate 250 g/ha, Postemergence, scale 0 to 10, 0 is no effect, 10 is complete control

CC(C)N(C(=O)n1oc(=O)n(C(C)C)c1=O)c1ccc(Cl)cc1 [Compound 114]
1: Morningglory plant response rating (morningglory; [6]) | Morningglory plant response rating (morningglory; [7]) | Velvetleaf plant response rating (velvetleaf; [1])
4: Morningglory plant response rating (morningglory; [1]) | Morningglory plant response rating (morningglory; [2]) | Velvetleaf plant response rating (velvetleaf; [3]) | Velvetleaf plant response rating (0 to 10 scale) (velvetleaf; [9]) | Sugarbeets plant response rating (sugar beet; [3]) | Plant response rating, Sugarbeets (sugar beet; [11])
3: Rape plant response rating (rape; [1]) | Rape plant response rating (rape; [2]) | Plant response rating, Rape (rape; [4]) | Rape plant response rating (rape; [7]) | Bedstraw plant response rating (bedstraw; [12]) | Plant response rating, Velvetleaf (velvetleaf; [11]) | Velvetleaf plant response rating (velvetleaf; [8]) | Sugarbeets plant response rating (sugar beet; [1]) | Sugarbeets plant response rating (sugar beet; [7]) | Plant response rating, Redroot pigweed (pigweed; [14]) | Redroot pigweed plant response rating (pigweed; [8]) | Soybean plant response rating (soybean; [1]) | Soybean plant response rating (soybean; [6]) | Soybean plant response rating (soybean; [7])
0: Morningglory plant response rating (morningglory; [3]) | Plant response rating, Morningglory (morningglory; [4]) | Plant response rating, Morningglory (morningglory; [5]) | Wheat plant response rating (wheat; [1]) | Wheat plant response rating (wheat; [3]) | Wheat plant response rating (0 to 10 scale) (wheat; [9]) | Wheat plant response rating (wheat; [7]) | Plant response rating, Wheat (wheat; [11]) | Wheat plant response rating (wheat; [8]) | Rape plant response rating (rape; [3]) | Cocklebur plant response rating (cocklebur; [1]) | Cocklebur plant response rating (cocklebur; [2]) | Cocklebur plant response rating (cocklebur; [3]) | Plant response rating, Cocklebur (cocklebur; [4]) | Plant response rating, Cocklebur (cocklebur; [5]) | Cocklebur plant response rating (cocklebur; [7]) | Cocklebur plant response rating (cocklebur; [8]) | Bedstraw plant response rating (bedstraw; [3]) | Plant response rating, Bedstraw (bedstraw; [4]) | Plant response rating, Bedstraw (bedstraw; [5]) | Bedstraw plant response rating (bedstraw; [6]) | Velvetleaf plant response rating (velvetleaf; [7]) | Ducksalad plant response rating (duck salad; Postemergence (flood test species), Rate 125 g/ha, scale of 0 to 10 where 0 is no effect and 10 is complete control) | Ducksalad plant response rating (duck salad; Rate 62 g/ha, Postemergence section, flood test species, scale of 0 to 10 where 0 is no effect and 10 is complete control) | Ducksalad plant response rating (duck salad; Rate 500 g/ha, listed under Postemergence (flood test species), scale 0 to 10, 0 no effect, 10 complete control) | Ducksalad plant response rating (duck salad; flood test, listed under Postemergence, Rate 250 g/ha, scale 0 to 10, 0 no effect, 10 complete control) | Nutsedge plant response rating (purple nutsedge; [1]) | Nutsedge plant response rating (purple nutsedge; [2]) | Nutsedge plant response rating (purple nutsedge; [3]) | Plant response rating, Nutsedge (purple nutsedge; [4]) | Plant response rating, Nutsedge (purple nutsedge; [5]) | Nutsedge plant response rating (purple nutsedge; [6]) | Nutsedge plant response rating (purple nutsedge; [7]) | Nutsedge plant response rating (purple nutsedge; [8]) | B. signalgrass plant response rating (surinam grass; [12]) | B. signalgrass plant response rating (surinam grass; [3]) | Plant response rating, B. signalgrass (surinam grass; [4]) | B. signalgrass plant response rating (surinam grass; [13]) | Redroot pigweed plant response rating (pigweed; [7]) | Soybean plant response rating (soybean; [3]) | Plant response rating, Soybean (soybean; [4]) | Plant response rating, Soybean (soybean; [5]) | Corn plant response rating (corn; [1]) | Corn plant response rating (corn; [2]) | Corn plant response rating (corn; [3]) | Plant response rating, Corn (corn; [4]) | Corn plant response rating (corn; [7]) | Corn plant response rating (corn; [8])
7: Rape plant response rating (rape; [8]) | Bedstraw plant response rating (bedstraw; [8]) | Plant response rating, Crabgrass (crabgrass; [4]) | Plant response rating, Sugarbeets (sugar beet; [10]) | Sugarbeets plant response rating (sugar beet; [6]) | Plant response rating, B. signalgrass (surinam grass; [5]) | B. signalgrass plant response rating (surinam grass; Rate 500 g/ha, Postemergence, scale of 0 to 10 where 0 is no effect and 10 is complete control) | Soybean plant response rating (soybean; [8]) | Plant response rating, Corn (corn; [5])
2: Plant response rating, Wheat (wheat; [10]) | Crabgrass plant response rating (crabgrass; [3]) | Crabgrass plant response rating (crabgrass; [7]) | Redroot pigweed plant response rating (pigweed; [1])
10: Rape plant response rating (rape; [6]) | B. signalgrass plant response rating (surinam grass; [6]) | Plant response rating, Redroot pigweed (pigweed; [5]) | Redroot pigweed plant response rating (pigweed; [6]) | Plant response rating, Giant foxtail (giant foxtail; [5]) | Giant foxtail plant response rating (giant foxtail; [6])
9: Crabgrass plant response rating (crabgrass; [2]) | Plant response rating, Crabgrass (crabgrass; [5]) | Crabgrass plant response rating (crabgrass; [6]) | Crabgrass plant response rating (crabgrass; [8]) | Giant foxtail plant response rating (giant foxtail; [1]) | Giant foxtail plant response rating (giant foxtail; [2]) | Plant response rating, Giant foxtail (giant foxtail; [4]) | Giant foxtail plant response rating (giant foxtail; [8]) | Corn plant response rating (corn; [6])
6: Plant response rating, Rape (rape; [5]) | Bedstraw plant response rating (bedstraw; [2]) | Bedstraw plant response rating (bedstraw; [13]) | Velvetleaf plant response rating (velvetleaf; [6]) | Sugarbeets plant response rating (0 to 10 scale) (sugar beet; [9])
8: Morningglory plant response rating (morningglory; [8]) | Wheat plant response rating (wheat; [6]) | Crabgrass plant response rating (crabgrass; [1]) | Plant response rating, Redroot pigweed (pigweed; [4])
5: Plant response rating, Velvetleaf (velvetleaf; [10]) | Sugarbeets plant response rating (sugar beet; [8]) | B. signalgrass plant response rating (surinam grass; [2]) | Redroot pigweed plant response rating (pigweed; [3]) | Giant foxtail plant response rating (giant foxtail; [3]) | Giant foxtail plant response rating (giant foxtail; [7]) | Plant response rating, Soybean (soybean; [14])
